Columns and labels:
[1] = test system: murine microglial cell line N9; assay: ABA content in murine microglia N9 by HPLC-MS; assay type: cell-based; details: N9 cells; fluridone 50 μM together with LPS
Protocol: Cells from the murine microglial cell line N9 were pre-incubated with or without 50 μM fluridone for 2 hours and then stimulated with 100 ng/ml lipopolysaccharide (LPS) for 24 hours. The ABA content was measured by HPLC-MS (see Materials and Methods) and was compared with that of untreated cells (control). The results are the mean from 2 experiments.
N9 cells were seeded (25×10^6/flask) in IMDM medium containing fetal calf serum, incubated for 3 h at 37° C. with or without 50 μM fluridone and then incubated for 3 days in the absence or in the presence of 200 ng/ml lipopolysaccharide (LPS). Cells were then recovered, washed in phosphate-buffered saline isotonic solution at pH 7.4 (PBS), resuspended in 0.5 ml water and sonicated. […] A small aliquot of the extract was used to determine radioactivity (with a β-counter), allowing the calculation of the percentage of ABA recovery after-extraction. The rest of the extract was analyzed on an Agilent 1100 capillary chromatography system, with a diode array detector, equipped with a Waters Atlantis™ dC18 150×1 mm column, particle size 3 μm, coupled to an Agilent 1100 series LC/MSD Trap mass spectrometer, equipped with an orthogonal geometry electrospray source and ion trap analyser. […]

whole blood cells = assay: LPS-induced histamine release from blood cells; assay type: cell-based, human; details: pre-incubation with 50 μM fluridone
Protocol: Whole blood was pre-incubated for 2 hours at 25° C. in the absence (control) or in the presence of 50 μM fluridone. Then, 100 ng/ml of lipopolysaccharide (LPS) was added to the blood at 37° C. for the time indicated. The histamine concentration in plasma was measured immunoenzymatically with a commercially available kit (IBL-Hamburg, Germany). The results are the mean ±SD from 3 experiments.

SMILES: Cn1cc(-c2ccccc2)c(=O)c(-c2cccc(C(F)(F)F)c2)c1 [Fluridone, 1-methyl-3-phenyl-5-(α,α,α-trifluoro-m-tolyl)-4-pyridone]
- reduction of the LPS-induced increase of intracellular ABA content [1]: 60%
- histamine release by LPS-stimulated (unfractionated) blood cells (whole blood cells): completely inhibits

Source: patent publication US7786042B2, “Fluridone as an anti-inflammatory agent” (Universita' Degli Studi Di Genova, priority 2005, dated 2010)
